One block for each molecule: values may come before it. Starred links: 1 amine or outer side, 2 acyl side, 3 side chain; linkers in the order of their positions; H or OH if unused. Non-standard residues stand in square brackets, D forms with d. Residues, ends and D or L forms follow the SMILES beside them. No end group written: not given here. *: point of attachment. 3‑amino‑4‑oxobutanoic acid = aspartic acid with its alpha-carboxyl as an aldehyde, O=C[C@H](CC(=O)[*:3])N[*:1]; AMC = Cc1cc(=O)oc2cc(N*)ccc12
Columns and labels:
[1] = biological target: T1, Interleukin-1β convertase (ICE), DEAE-purified THP-1 cell lysate (Homo sapiens, UniProt P29466); assay: Coupled fluorometric ICE assay with leucine aminopeptidase (LAPM); assay type: biochemical; design: Activity of DEAE-purified THP-1 cell lysate; endogenous in cells; host or cells: THP-1 cells; cytosolic extract fractionated on a DEAE-5PW HPLC column; settings: 25° C.
T1 sequence (P29466 120-297 limits assumed): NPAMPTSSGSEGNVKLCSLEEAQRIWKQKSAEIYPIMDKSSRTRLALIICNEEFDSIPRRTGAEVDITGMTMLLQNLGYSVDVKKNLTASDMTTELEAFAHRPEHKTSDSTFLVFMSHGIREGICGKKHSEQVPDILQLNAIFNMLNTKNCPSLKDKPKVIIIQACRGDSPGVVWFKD
T1 sequence (P29466 317-404 limits assumed): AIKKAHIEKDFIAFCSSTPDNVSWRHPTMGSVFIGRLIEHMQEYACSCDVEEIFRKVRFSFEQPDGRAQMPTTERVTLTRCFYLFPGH
Method: Coupled Assay: Interleukin 1β activity of Activity of DEAE-purified THP-1 cell lysate.
At 25° C., 5 μl of substrate 5 μl of LAPM, 5 μl of ICE were added to […] of buffer.
Reaction is monitored continuously in a Gilford Fluoro-IV Spectrofluorometer. excitation wavelength=380 nm emission wavelength=460 nm 1 uM AMC=100% relative fluoroescence

[2] = biological target: T1, Interleukin-1β convertase (ICE), DEAE-purified THP-1 cell lysate; assay type: biochemical; design: Activity of DEAE-purified THP-1 cell lysate; endogenous in cells; host or cells: THP-1 cells; cytosolic extract fractionated on a DEAE-5PW HPLC column; settings: pH 7.5
Method: [table] At 25° C., 5 μl of substrate 5 μl of enzyme and 5 μl of sample were added to 485 μl of Buffer as defined above. Liberation of AMC was monitored using a Gilford Fluoro IV Spectrofluorometer using an excitation wavelength of 380 nm and an emmission wavelength of 460 nm. 1 μM AMC=100% relative fluorescence.

[3] = biological target: T2, Interleukin-1β convertase (ICE) (UniProt P29466 120-297; P29466 317-404, limits assumed); assay: cell-based or functional assay
T2 sequence (looked up) 1: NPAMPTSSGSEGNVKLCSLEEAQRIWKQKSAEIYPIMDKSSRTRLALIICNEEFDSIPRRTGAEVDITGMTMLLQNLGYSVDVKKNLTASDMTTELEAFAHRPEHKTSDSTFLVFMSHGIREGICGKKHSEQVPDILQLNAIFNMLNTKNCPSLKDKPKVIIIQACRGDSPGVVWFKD
T2 sequence (looked up) 2: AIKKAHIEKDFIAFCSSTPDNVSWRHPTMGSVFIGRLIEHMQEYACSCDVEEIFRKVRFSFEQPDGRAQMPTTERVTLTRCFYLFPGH

Molecule: CC(=O)N[C@@H](Cc1ccc(O)cc1)C(=O)N[C@H](C(=O)N[C@@H](C)C(=O)N[C@@H](CC(=O)O)C(=O)NCC(=O)Nc1ccc2c(C)cc(=O)oc2c1)C(C)C [Ac-Tyr-Val-Ala-Asp-Gly-AMC, N-(N-Acetyl-tyrosinyl-valinyl-alaninyl-aspartyl-glycinyl)-7-amino-4-methylcoumarin] (Ac-YVADG-{AMC})
velocity of the steady state reaction ([1]; 5 μl substrate, 5 μl LAPM, 5 μl ICE, pH 7.5): 0.05 uM AMC/min
rate constant that describes the approach to steady state (lag phase) ([1]; determined by amount of coupling enzyme LAPM (5 μl of 12.5 units/ml)): 0.44 ± 0.01 min⁻¹

rate constant for inhibition ([2]; 5 μl of 2 μM sample in 500 μl, 25° C.): 0.25 min⁻¹
half-life for the slow onset of inhibition [2]: 2.7 min
type of inhibition ([2]; substrate Ac-Tyr-Val-Ala-Asp-AMC, 25° C.): slow, tight-binding inhibitor
Molecule: CC(=O)N[C@@H](Cc1ccc(O)cc1)C(=O)N[C@H](C(=O)N[C@@H](C)C(=O)NC(C=O)CC(=O)O)C(C)C (stereo partly drawn) [Compound Z, N-(N-acetyl-tyrosinyl-valinyl-alaninyl)-3-amino-4-oxo butanoic acid]

half-life for the slow onset of inhibition [3]: 2.7 min
Molecule: Ac-YVA[3‑amino‑4‑oxobutanoic acid] [compound Z (i.e. N-(N-acetyl-tyrosinyl-valinyl-alaninyl)-3-amino-4-oxo butanoic acid)]
